The values below come from patent publication US20250340574A1, “MODULATORS OF CYSTIC FIBROSIS TRANSMEMBRANE CONDUCTANCE REGULATOR” (Vertex Pharmaceuticals Incorporated, priority 2022, published 2025).

What is called EC50 is the concentration giving half of the maximal effect.

SMILES strings stand for the structures. Read-outs that look alike come from different tables or passages of the source. A value given as a limit tells only on which side of the number the result lay.

The conditions of series [1]: amide bond, 13-membered ring, CDMT/NMM, DMF.
Series [2] deals with T1, CFTR (F508del/MF-HBE cells) (Homo sapiens, UniProt P13569, DEL508-508).
T1 construct: human bronchial epithelial (HBE) cells derived from CF subjects heterozygous for F508del and a minimal function CFTR mutation (F508del/MF-HBE); endogenous in cells; host or cells: Primary human bronchial epithelial cells from CF subjects (F508del/MF genotype), differentiated at an air-liquid interface
T1 sequence (P13569 with tags, fused parts or gaps DEL508-508): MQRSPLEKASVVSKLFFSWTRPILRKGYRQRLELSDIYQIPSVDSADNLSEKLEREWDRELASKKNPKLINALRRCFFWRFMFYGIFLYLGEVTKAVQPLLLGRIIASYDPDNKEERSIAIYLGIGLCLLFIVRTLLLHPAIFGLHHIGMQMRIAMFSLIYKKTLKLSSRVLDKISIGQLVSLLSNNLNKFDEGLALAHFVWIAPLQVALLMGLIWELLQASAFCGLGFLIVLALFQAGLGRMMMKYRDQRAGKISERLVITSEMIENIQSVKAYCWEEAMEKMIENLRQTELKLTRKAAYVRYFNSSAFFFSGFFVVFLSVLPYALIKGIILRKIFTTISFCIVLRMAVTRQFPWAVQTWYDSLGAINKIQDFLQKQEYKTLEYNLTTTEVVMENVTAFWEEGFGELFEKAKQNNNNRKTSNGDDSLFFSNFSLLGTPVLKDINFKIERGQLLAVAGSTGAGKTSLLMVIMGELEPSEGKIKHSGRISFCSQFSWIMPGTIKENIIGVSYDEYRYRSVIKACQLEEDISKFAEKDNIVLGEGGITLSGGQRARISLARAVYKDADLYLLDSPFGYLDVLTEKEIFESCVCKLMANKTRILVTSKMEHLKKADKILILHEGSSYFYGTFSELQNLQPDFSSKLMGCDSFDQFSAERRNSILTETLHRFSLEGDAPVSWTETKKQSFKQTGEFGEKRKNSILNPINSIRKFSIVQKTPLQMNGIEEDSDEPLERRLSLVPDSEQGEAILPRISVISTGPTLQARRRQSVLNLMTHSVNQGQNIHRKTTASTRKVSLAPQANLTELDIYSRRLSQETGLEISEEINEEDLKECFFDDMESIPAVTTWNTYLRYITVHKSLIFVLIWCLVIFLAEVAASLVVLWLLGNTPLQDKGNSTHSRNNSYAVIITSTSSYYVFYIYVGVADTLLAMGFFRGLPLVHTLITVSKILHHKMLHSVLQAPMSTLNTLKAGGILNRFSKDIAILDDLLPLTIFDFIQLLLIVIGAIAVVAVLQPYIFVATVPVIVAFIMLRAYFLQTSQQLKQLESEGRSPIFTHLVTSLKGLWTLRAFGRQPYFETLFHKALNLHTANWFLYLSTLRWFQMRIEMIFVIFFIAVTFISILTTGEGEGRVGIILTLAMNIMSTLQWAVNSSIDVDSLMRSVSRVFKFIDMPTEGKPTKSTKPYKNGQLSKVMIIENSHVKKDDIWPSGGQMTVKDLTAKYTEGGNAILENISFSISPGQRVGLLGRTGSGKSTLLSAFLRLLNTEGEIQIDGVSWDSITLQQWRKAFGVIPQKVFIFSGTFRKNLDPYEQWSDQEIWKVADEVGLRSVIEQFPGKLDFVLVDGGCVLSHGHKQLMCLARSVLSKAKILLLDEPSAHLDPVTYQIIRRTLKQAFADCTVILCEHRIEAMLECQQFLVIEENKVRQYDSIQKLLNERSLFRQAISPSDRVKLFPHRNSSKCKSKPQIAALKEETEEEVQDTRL
Put plainly: Ussing chamber assay of CFTR-mediated short-circuit currents, Assay A (0.1 μM to 25 μM, 6 concentrations). The format is cell-based. Conditions: with 33 nM potentiator and 18 μM Tezacaftor, 20% human serum; for Emax: 18-24 hours, read-out: A Max activity (%). Summed up:
(§1)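 F508del/MF-HBE cells were preincubated 18–24 h at 37 °C in 20% human serum with corrector plus 18 μM tezacaftor and either 33 nM (concentration series) or 44 nM (1 μM single point) of the aminotrifluoromethyl triazatricyclic potentiator. Ussing chamber, Vhold=0 mV, 37 °C; forskolin 20 μM stimulation, CFTR ISC taken as inhibitor-cocktail-sensitive current.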

In series [3] the target is T1, CFTR (F508del/MF-HBE cells). Put plainly: Ussing chamber assay of CFTR-mediated short-circuit currents, Assay B (0.00001 μM to 25 μM, 12 concentrations). The format is cell-based. Conditions: with 33 nM potentiator and 18 μM Tezacaftor, 20% human serum; for Emax: 18-24 hours, read-out: B Max activity (%). The protocol:
Ussing chamber experiments were performed using human bronchial epithelial (HBE) cells derived from CF subjects heterozygous for F508del and a minimal function CFTR mutation (F508del/MF-HBE) and cultured as previously described (Neuberger T, Burton B, Clark H, Van Goor F Methods Mol Biol 2011:741:39-54). After four days the apical media was removed, and the cells were grown at an air liquid interface for >14 days prior to use.
To isolate the CFTR-mediated short-circuit (ISC) current, F508del/MF-HBE grown on Costar® Snapwell™ cell culture inserts were mounted in an Ussing chamber and the transepithelial ISC was measured under voltage-clamp recording conditions (Vhold=0 mV) at 37° C. The basolateral solution contained (in mM) 145 NaCl, 0.83 K2HPO4, 3.3 KH2PO4, 1.2 MgCl2, 1.2 CaCl2, 10 Glucose, 10 HEPES (pH adjusted to 7.4 with NaOH) and the apical solution contained (in mM) 145 NaGluconate, 1.2 MgCl2, 1.2 CaCl2, 10 glucose, 10 HEPES (pH adjusted to 7.4 with NaOH) and 30 μM amiloride to block the epithelial sodium channel. Forskolin (20 μM) was added to the apical surface to activate CFTR, followed by apical addition of a CFTR inhibitor cocktail consisting of BPO, GlyH-101, and CFTR inhibitor 172 (each at 20 μM final assay concentration) to specifically isolate CFTR currents. The CFTR-mediated ISC (μA/cm^2) for each condition was determined from the peak forskolin response to the steady-state current following inhibition.
The activity of the CFTR corrector compounds on the CFTR-mediated ISC was determined in Ussing chamber studies as described above. The F508del/MF-HBE cell cultures were either incubated with the corrector compounds at a range of concentrations in combination with 33 nM (6R,12R)-17-amino-12-methyl-6,15-bis(trifluoromethyl)-13,19-dioxa-3,4,18-triazatricyclo[12.3.1.12,5]nonadeca-1(18),2,4,14,16-pentaen-6-ol and 18 μM Tezacaftor or were incubated with the corrector compounds at a single fixed concentration of 1 μM in combination with 44 nM (6R,12R)-17-amino-12-methyl-6,15-bis(trifluoromethyl)-13,19-dioxa-3,4,18-triazatricyclo[12.3.1.12,5]nonadeca-1(18),2,4,14,16-pentaen-6-ol and 18 μM Tezacaftor for 18-24 hours at 37° C. and in the presence of 20% human serum. The concentration of corrector compounds with 44 nM or 33 nM (6R,12R)-17-amino-12-methyl-6,15-bis(trifluoromethyl)-13,19-dioxa-3,4,18-triazatricyclo[12.3.1.12,5]nonadeca-1(18),2,4,14,16-pentaen-6-ol and 18 μM Tezacaftor during the 18-24 hours incubations was kept constant throughout the Ussing chamber measurement of the CFTR-mediated ISC to ensure compounds were present throughout the entire experiment. The efficacy and potency of the putative F508del correctors was compared to that of the known Vertex corrector, (14S)-8-[3-(2-{Dispiro[2.0.2.1]heptan-7-yl}ethoxy)-1H-pyrazol-1-yl]-12,12-dimethyl-2λ^6-thia-3,9,11,18,23-pentaazatetracyclo[17.3.1.111,14.05,10]tetracosa-1(22),5,7,9,19(23),20-hexaene-2,2,4-trione, in combination with 18 μM Tezacaftor and 1 μM Ivacaftor.
• Assay A: 0.1 μM to 25 μM, 6 concentrations • Assay B: 0.00001 μM to 25 μM, 12 concentrations • Assay C: 0.026 μM to 25 μM, 6 concentrations • Assay D: Activity at single concentration of 1 μM

The target is the same in series [4]. The series is described as follows: Ussing chamber assay of CFTR-mediated short-circuit currents, Assay D (single concentration of 1 μM). The format is cell-based. Conditions: with 44 nM potentiator and 18 μM Tezacaftor, 20% human serum. The procedure, abridged: as §1
Series [5] shares this target. The series is described as follows: Ussing chamber assay of CFTR-mediated short-circuit currents, Assay C (0.026 μM to 25 μM, 6 concentrations). Type of series: cell-based. Conditions: with 33 nM potentiator and 18 μM Tezacaftor, 20% human serum. The procedure, abridged:
as §1

`Cc1cccc(C)c1-c1cc2nc(n1)NS(=O)(=O)c1cccc(c1)C(=O)N(Cc1nc3c(cc1F)cc(C(C)C)n3C)[C@H](CC13CC(C1)C3)CO2` [Compound I-87, (11R)-11-(1-bicyclo[1.1.1]pentanylmethyl)-6-(2,6-dimethylphenyl)-12-[(5-fluoro-2-isopropyl-1-methyl-pyrrolo[2,3-b]pyridin-6-yl)methyl]-2,2-dioxo-9-oxa-2λ^6-thia-3,5,12,19-tetrazatricyclo[12.3.1.14,8]nonadeca-1(18),4(19),5,7,14,16-hexaen-13-one]: in series [1] (from Cc1cccc(C)c1-c1cc(OC[C@@H](CC23CC(C2)C3)NCc2nc3c(cc2F)cc(C(C)C)n3C)nc(NS(=O)(=O)c2cccc(C(=O)O)c2)n1, 10.7 mM, 24.5 h), the ring closure, yield after HPLC worked out at 39%. Besides, in series [2], the Emax is more than 60% and the EC50 was less than 1000 nM.

`Cc1cccc(C)c1-c1cc2nc(n1)NS(=O)(=O)c1cccc(c1)C(=O)N(Cc1cnc3cn(C(C)C)nc3n1)[C@H](CC1(C)CC1)CO2` [Compound I-128, (11R)-6-(2,6-Dimethylphenyl)-12-[(2-isopropylpyrazolo[3,4-b]pyrazin-6-yl)methyl]-11-[(1-methylcyclopropyl)methyl]-2,2-dioxo-9-oxa-2λ^6-thia-3,5,12,19-tetrazatricyclo[12.3.1.14,8]nonadeca-1(18),4(19),5,7,14,16-hexaen-13-one] had a ring closure, yield after HPLC in series [1] (from Cc1cccc(C)c1-c1cc(OC[C@@H](CC2(C)CC2)NCc2cnc3cn(C(C)C)nc3n2)nc(NS(=O)(=O)c2cccc(C(=O)O)c2)n1, 12.0 mM, 22.5 h) of 38%. Moreover, in series [3], the Emax was more than 60% and the EC50 was in the range of 3000 to 30000 nM.

Molecule `Cc1cccc(C)c1-c1cc2nc(n1)NS(=O)(=O)c1cccc(c1)C(=O)N(Cc1cnc3oc(C(C)C)c(C)c3n1)[C@H](CC13CC(C1)C3)CO2` [Compound I-62, (11R)-11-(1-bicyclo[1.1.1]pentanylmethyl)-6-(2,6-dimethylphenyl)-12-[(6-isopropyl-7-methyl-furo[2,3-b]pyrazin-2-yl)methyl]-2,2-dioxo-9-oxa-2λ^6-thia-3,5,12,19-tetrazatricyclo[12.3.1.14,8]nonadeca-1(18),4(19),5,7,14,16-hexaen-13-one] returned a ring closure, yield after HPLC in series [1] (from Cc1cccc(C)c1-c1cc(OC[C@@H](CC23CC(C2)C3)NCc2cnc3oc(C(C)C)c(C)c3n2)nc(NS(=O)(=O)c2cccc(C(=O)O)c2)n1, 39.5 mM, 14.0 h) of 70%. Besides, in series [2], the Emax is more than 60% and the EC50 is less than 1000 nM.

`Cc1cccc(C)c1-c1cc2nc(n1)NS(=O)(=O)c1cccc(c1)C(=O)N(Cc1cnc3oc(C)c(C4CC4)c3n1)[C@H](COC(C)C)CO2` [Compound I-26, (11R)-12-[(7-cyclopropyl-6-methyl-furo[2,3-b]pyrazin-2-yl)methyl]-6-(2,6-dimethylphenyl)-11-(isopropoxymethyl)-2,2-dioxo-9-oxa-2λ^6-thia-3,5,12,19-tetrazatricyclo[12.3.1.14,8]nonadeca-1(18),4(19),5,7,14,16-hexaen-13-one] yielded a ring closure, yield after HPLC in series [1] (from Cc1cccc(C)c1-c1cc(OC[C@@H](COC(C)C)NCc2cnc3oc(C)c(C4CC4)c3n2)nc(NS(=O)(=O)c2cccc(C(=O)O)c2)n1, 12.8 mM, 16.5 h) of 61%. Also, in series [2], the Emax was more than 60% and the EC50 was less than 1000 nM.

As to `Cc1cccc(C)c1-c1cc2nc(n1)NS(=O)(=O)c1cccc(c1)C(=O)N(Cc1cnc3oc(C4CC4)cc3n1)[C@H](CC1(F)CCC1)CO2` [Compound I-123, (11R)-12-[(6-cyclopropylfuro[2,3-b]pyrazin-2-yl)methyl]-6-(2,6-dimethylphenyl)-11-[(1-fluorocyclobutyl)methyl]-2,2-dioxo-9-oxa-2λ^6-thia-3,5,12,19-tetrazatricyclo[12.3.1.14,8]nonadeca-1(18),4(19),5,7,14,16-hexaen-13-one], in series [1] (from Cc1cccc(C)c1-c1cc(OC[C@@H](CC2(F)CCC2)NCc2cnc3oc(C4CC4)cc3n2)nc(NS(=O)(=O)c2cccc(C(=O)O)c2)n1, 27.1 mM, 2.08 h), the ring closure, yield after HPLC stood at 53%. In addition, in series [3], the Emax is more than 60% and the EC50 lay in the range of 3000 to 30000 nM.

Molecule `CCc1c2nc(nc1-c1c(C)cccc1C)NS(=O)(=O)c1cccc(c1)C(=O)N(Cc1cnc3cc(C(C)(C)C)n(C)c3n1)[C@H](COC(C)C)CO2` [IV-4, (11R)-12-[(6-tert-butyl-5-methyl-pyrrolo[2,3-b]pyrazin-3-yl)methyl]-6-(2,6-dimethylphenyl)-7-ethyl-11-(isopropoxymethyl)-2,2-dioxo-9-oxa-2λ^6-thia-3,5,12,19-tetrazatricyclo[12.3.1.14,8]nonadeca-1(17),4(19),5,7,14(18),15-hexaen-13-one] displayed a ring closure, yield after HPLC in series [1] (from CCc1c(OC[C@@H](COC(C)C)NCc2cnc3cc(C(C)(C)C)n(C)c3n2)nc(NS(=O)(=O)c2cccc(C(=O)O)c2)nc1-c1c(C)cccc1C, 10.0 mM, 25.0 °C, 3.5 h) of 20%. Moreover, the “D act. at 1 μM (%)” value in series [4] is “+++ (+++ is >60%)”. The EC50 in series [5] is less than 1000 nM. Also, in series [5] (read-out: C Max activity (%)), the Emax was more than 60%.

Molecule `Cc1cccc(C)c1-c1cc2nc(n1)NS(=O)(=O)c1cccc(c1)C(=O)N(Cc1cnc3oc(C(C)C)cc3n1)[C@H](CCC1(C)CCC1)CO2` [Compound I-13, (11R)-6-(2,6-dimethylphenyl)-12-[(6-isopropylfuro[2,3-b]pyrazin-2-yl)methyl]-11-[2-(1-methylcyclobutyl)ethyl]-2,2-dioxo-9-oxa-2λ^6-thia-3,5,12,19-tetrazatricyclo[12.3.1.14,8]nonadeca-1(18),4(19),5,7,14,16-hexaen-13-one] yielded a ring closure, yield after HPLC in series [1] (from Cc1cccc(C)c1-c1cc(OC[C@@H](CCC2(C)CCC2)NCc2cnc3oc(C(C)C)cc3n2)nc(NS(=O)(=O)c2cccc(C(=O)O)c2)n1, 13.5 mM, 16.5 h) of 37%. For the same molecule, in series [2], the Emax was more than 60% and the EC50 was less than 1000 nM.
